This note sets out measurements from US20240051946A1, “TARGETED PROTEIN DEGRADATION OF PARP14 FOR USE IN THERAPY” (Ribon Therapeutics, Inc., priority 2022, published 2024).

The structures appear in SMILES notation.

The target of this experiment is T1, catalytic domain of human PARP14 (residues 1611 to 1801) with NanoLuc tag (Homo sapiens, UniProt Q460N5).
T1 construct: expressed in transfected cells; host or cells: HEK-293T cells (ATCC), plasmid pRTX240 in pcDNA3.1(-)
T1 sequence (Q460N5 1611-1801): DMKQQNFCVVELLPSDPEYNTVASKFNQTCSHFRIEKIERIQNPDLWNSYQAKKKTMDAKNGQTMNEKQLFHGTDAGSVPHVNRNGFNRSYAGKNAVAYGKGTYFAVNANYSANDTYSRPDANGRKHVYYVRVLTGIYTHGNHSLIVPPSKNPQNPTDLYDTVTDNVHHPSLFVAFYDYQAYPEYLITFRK
Briefly: NanoLuc assay for the degradation of PARP14. The experiment is classed as cell-based. The conditions noted are these: Assay A; NanoLuc-PARP14 overexpressed in HEK-293T cells; 2 hours at 37 degrees; luminescence. The procedure:
The catalytic domain of human PARP14 (residues 1611 to 1801, GenBank Accession No. NM_017554) was inserted into the pcDNA3.1(−) vector. The insert also contained a NanoLuc tag on the N terminus of the PARP14 protein.
Degradation of PARP14 protein was assessed using measurement of the NanoLuc tag as proxy for the PARP14 protein. PARP14 with NanoLuc tag was overexpressed in […] cells (ATCC) using the plasmid described in Table 1. Plasmid DNA was diluted in empty vector DNA then added to 1.163 mL of phenol red free OptiMEM (Thermo Fisher). Plasmid DNA concentrations used in each assay described in Table 1. The plasmid DNA was mixed with 78.5 μL of Fugene HD (Promega) and allowed to incubate 5 minutes.
Next, 1.125 mL were added to 10 million 293T cells in DMEM (Thermo Fisher) supplemented with 10% FBS (VWR) and 1× Glutamax (Gibco). The transfection was incubated for 24 hrs at 37 degrees in an incubator supplemented with 5% CO2. The cells were then trypsinized and brought up in phenol red free OptiMEM media. Transfected HEK-293T cells were diluted to […] and then added to assay plate (Corning 3574) using a Multidrop (Thermo Fisher) to add 40 μL per well of the 384 well plate, resulting in 5,000 cells per well. 40 nL of a dose response curve diluted in DMSO of each test compound was added to the cell plate using a Mosquito (TTP Labtech) and the plate was incubated at 37 degrees for 2 hours. Assay plate was brought to room temperature then 20 μL per well of NanoGlo (Promega) was added to the plate. Luminescence was measured on an Envision (Perkin Elmer).
The average DMSO was calculated from 32 wells containing 0.1% DMSO only in columns 12 and 24 of the assay plate. The % of DMSO values were calculated as described below: […]
The % of DMSO values were plotted as a function of compound concentration and the following 4-parameter fit was applied to derive the DC50 values:
where top, bottom, and Hill Coefficient are allowed to float. Y is the % of DMSO and X is the compound concentration.
DC50 data for the Example compounds is provided below in Table 2 (“+” is <0.1 μM; “++” is ≥0.1 μM and <1 μM; and “+++” is ≥1 μM).
A word on the DC50: it is the midpoint of the concentration-degradation curve. A low value points to degradation at low concentration. In the case of `O=C1CCC(N2C(=O)c3ccc(N4CCN(CC5CCN(C(=O)CN6CCC(SCc7nc8cc(NC9CCCC9)cc(F)c8c(=O)[nH]7)CC6)CC5)CC4)cc3C2=O)C(=O)N1` (stereo not shown) [Example 29, 5-(4-((1-(2-(4-(((7-(cyclopentylamino)-5-fluoro-4-oxo-3,4-dihydroquinazolin-2-yl)methyl)thio)piperidin-1-yl)acetyl)piperidin-4-yl)methyl)piperazin-1-yl)-2-(2,6-dioxopiperidin-3-yl)isoindoline-1,3-dione], the half-maximal degradation concentration (DC50) is less than 100 nM.
For the compound `CC(=O)N1CCC(COc2cc(F)c3c(=O)[nH]c(CSC4CCN(CC(=O)N5CCC(CN6CCN(c7ccc8c(c7)C(=O)N(C7CCC(=O)NC7=O)C8=O)CC6)CC5)CC4)nc3c2)CC1` (stereo not shown) [Example 28, 5-(4-((1-(2-(4-(((7-((1-acetylpiperidin-4-yl)methoxy)-5-fluoro-4-oxo-3,4-dihydroquinazolin-2-yl)methyl)thio)piperidin-1-yl)acetyl)piperidin-4-yl)methyl)piperazin-1-yl)-2-(2,6-dioxopiperidin-3-yl)isoindoline-1,3-dione], the half-maximal degradation concentration (DC50) is less than 100 nM.
For `O=C(CN1CCC(SCc2nc3cc(OCC4CCOCC4)cc(F)c3c(=O)[nH]2)CC1)NCCCCNC(=O)c1cccc(N2CCC(=O)NC2=O)c1` [Example 4, 3-(2,4-dioxotetrahydropyrimidin-1(2H)-yl)-N-(4-(2-(4-(((5-fluoro-4-oxo-7-((tetrahydro-2H-pyran-4-yl)methoxy)-3,4-dihydroquinazolin-2-yl)methyl)thio)piperidin-1-yl)acetamido)butyl)benzamide] the value was 100 to 1000 nM; for `O=C(CN1CCC(SCc2nc3cc(OCC4CCOCC4)cc(F)c3c(=O)[nH]2)CC1)NCCN1CCC(c2ccc(NC3CCC(=O)NC3=O)cc2)CC1` (stereo not shown) [Example 9, N-(2-(4-(4-((2,6-dioxopiperidin-3-yl)amino)phenyl)piperidin-1-yl)ethyl)-2-(4-(((5-fluoro-4-oxo-7-((tetrahydro-2H-pyran-4-yl)methoxy)-3,4-dihydroquinazolin-2-yl)methyl)thio)piperidin-1-yl)acetamide], less than 100 nM; for `CC(=O)N1CCC(COc2cc(F)c3c(=O)[nH]c(CSC4CCN(CC#Cc5ccc6c(c5)n(C)c(=O)n6C5CCC(=O)NC5=O)CC4)nc3c2)CC1` (stereo not shown) [Example 36, 3-(5-(3-(4-(((7-((1-acetylpiperidin-4-yl)methoxy)-5-fluoro-4-oxo-3,4-dihydroquinazolin-2-yl)methyl)thio)piperidin-1-yl)prop-1-yn-1-yl)-3-methyl-2-oxo-2,3-dihydro-1H-benzo[d]imidazol-1-yl)piperidine-2,6-dione], less than 100 nM.
For `CC(=O)N1CCC(COc2cc(F)c3c(=O)[nH]c(CSC4CCN(CC#Cc5cccc(N6CCC(=O)NC6=O)c5)CC4)nc3c2)CC1` [Example 38, 1-(3-(3-(4-(((7-((1-acetylpiperidin-4-yl)methoxy)-5-fluoro-4-oxo-3,4-dihydroquinazolin-2-yl)methyl)thio)piperidin-1-yl)prop-1-yn-1-yl)phenyl)dihydropyrimidine-2,4(1H,3H)-dione] the value was less than 100 nM; for `O=C(CN1CCC(SCc2nc3cc(OCC4CCOCC4)cc(F)c3c(=O)[nH]2)CC1)NCCCC(=O)N1CCC(c2cccc(NC3CCC(=O)NC3=O)c2)CC1` (stereo not shown) [Example 14, N-(4-(4-(3-((2,6-dioxopiperidin-3-yl)amino)phenyl)piperidin-1-yl)-4-oxobutyl)-2-(4-(((5-fluoro-4-oxo-7-((tetrahydro-2H-pyran-4-yl)methoxy)-3,4-dihydroquinazolin-2-yl)methyl)thio)piperidin-1-yl)acetamide], less than 100 nM.
The figure for `O=C1CCC(N2C(=O)c3ccc(N4CCC(CN5CCC(SCc6nc7cc(OCC8CC8)cc(F)c7c(=O)[nH]6)CC5)CC4)cc3C2=O)C(=O)N1` (stereo not shown) [Example 40, 5-(4-((4-(((7-(cyclopropylmethoxy)-5-fluoro-4-oxo-3,4-dihydroquinazolin-2-yl)methyl)thio)piperidin-1-yl)methyl)piperidin-1-yl)-2-(2,6-dioxopiperidin-3-yl)isoindoline-1,3-dione] is less than 100 nM.
With `O=C(CN1CCC(SCc2nc3cc(OCC4CCOCC4)cc(F)c3c(=O)[nH]2)CC1)NCCCCCC(=O)N1CCC(c2ccc(NC3CCC(=O)NC3=O)cc2)CC1` (stereo not shown) [Example 6, N-(6-(4-(4-((2,6-dioxopiperidin-3-yl)amino)phenyl)piperidin-1-yl)-6-oxohexyl)-2-(4-(((5-fluoro-4-oxo-7-((tetrahydro-2H-pyran-4-yl)methoxy)-3,4-dihydroquinazolin-2-yl)methyl)thio)piperidin-1-yl)acetamide], the DC50 is less than 100 nM.
Take `O=C1CCC(N2C(=O)c3cccc(N4CCC(CN5CCC(C(=O)N6CCC(SCc7nc8cc(NC9CCCC9)cc(F)c8c(=O)[nH]7)CC6)CC5)CC4)c3C2=O)C(=O)N1` (stereo not shown) [Example 23, 4-(4-((4-(4-(((7-(cyclopentylamino)-5-fluoro-4-oxo-3,4-dihydroquinazolin-2-yl)methyl)thio)piperidine-1-carbonyl)piperidin-1-yl)methyl)piperidin-1-yl)-2-(2,6-dioxopiperidin-3-yl)isoindoline-1,3-dione]: the half-maximal degradation concentration (DC50) was less than 100 nM.
For `O=C(CN1CCC(SCc2nc3cc(OCC4CCOCC4)cc(F)c3c(=O)[nH]2)CC1)NCC(=O)N1CCC(c2cccc(NC3CCC(=O)NC3=O)c2)CC1` (stereo not shown) [Example 11, N-(2-(4-(3-((2,6-dioxopiperidin-3-yl)amino)phenyl)piperidin-1-yl)-2-oxoethyl)-2-(4-(((5-fluoro-4-oxo-7-((tetrahydro-2H-pyran-4-yl)methoxy)-3,4-dihydroquinazolin-2-yl)methyl)thio)piperidin-1-yl)acetamide] the value was less than 100 nM; for `CC(=O)N1CCC(COc2cc(F)c3c(=O)[nH]c(CSC4CCN(C(=O)c5ccc(NC6CCC(=O)NC6=O)cc5)CC4)nc3c2)CC1` (stereo not shown) [Example 25, 3-((4-(4-(((7-((1-acetylpiperidin-4-yl)methoxy)-5-fluoro-4-oxo-3,4-dihydroquinazolin-2-yl)methyl)thio)piperidine-1-carbonyl)phenyl)amino)piperidine-2,6-dione], less than 100 nM.
The figure for `CC(=O)N1CCC(COc2cc(F)c3c(=O)[nH]c(CSC4CCN(CC(=O)N5CCC(c6ccc(N7CCN(C8CCC(=O)NC8=O)C7=O)cc6)CC5)CC4)nc3c2)CC1` (stereo not shown) [Example 18, 3-(3-(4-(1-(2-(4-(((7-((1-acetylpiperidin-4-yl)methoxy)-5-fluoro-4-oxo-3,4-dihydroquinazolin-2-yl)methyl)thio)piperidin-1-yl)acetyl)piperidin-4-yl)phenyl)-2-oxoimidazolidin-1-yl)piperidine-2,6-dione] is less than 100 nM.
The figure for `CC(=O)N1CCC(COc2cc(F)c3c(=O)[nH]c(CSC4CCN(CC5CCN(c6cccc7c6C(=O)N(C6CCC(=O)NC6=O)C7=O)CC5)CC4)nc3c2)CC1` (stereo not shown) [Example 39, 4-(4-((4-(((7-((1-acetylpiperidin-4-yl)methoxy)-5-fluoro-4-oxo-3,4-dihydroquinazolin-2-yl)methyl)thio)piperidin-1-yl)methyl)piperidin-1-yl)-2-(2,6-dioxopiperidin-3-yl)isoindoline-1,3-dione] is less than 100 nM.
`O=C1CCC(N2C(=O)c3cccc(N4CCN(CC5CCN(C(=O)CN6CCC(SCc7nc8cc(OCC9CCOCC9)cc(F)c8c(=O)[nH]7)CC6)CC5)CC4)c3C2=O)C(=O)N1` (stereo not shown) [Example 2, 2-(2,6-dioxopiperidin-3-yl)-4-(4-((1-(2-(4-(((5-fluoro-4-oxo-7-((tetrahydro-2H-pyran-4-yl)methoxy)-3,4-dihydroquinazolin-2-yl)methyl)thio)piperidin-1-yl)acetyl)piperidin-4-yl)methyl)piperazin-1-yl)isoindoline-1,3-dione] came in with a DC50 of less than 100 nM.
For `O=C(CN1CCC(SCc2nc3cc(OCC4CCOCC4)cc(F)c3c(=O)[nH]2)CC1)NCCCCCC(=O)N1CCC(c2cccc(NC3CCC(=O)NC3=O)c2)CC1` (stereo not shown) [Example 12, N-(6-(4-(3-((2,6-dioxopiperidin-3-yl)amino)phenyl)piperidin-1-yl)-6-oxohexyl)-2-(4-(((5-fluoro-4-oxo-7-((tetrahydro-2H-pyran-4-yl)methoxy)-3,4-dihydroquinazolin-2-yl)methyl)thio)piperidin-1-yl)acetamide] the value was less than 100 nM.
